Results as given in article PMC10451629, “Evaluation of the Effects of Heteroaryl Ethylene Molecules in Combination with Antibiotics: A Preliminary Study on Control Strains” (Antibiotics, 2023).
pIC50: −log10 of the molar value. In brackets after ≈: the same amount, converted by molar mass. Several values for one entry are separate records, joined by “and”; a condition that tells them apart may be missing. Identical values can stand only once. Like-named read-outs stand apart in the source and are kept apart here.

Assays:
[1] = system: K. pneumoniae ATCC 700603; assay: Broth microdilution MIC; assay type: cell-based, Klebsiella pneumoniae; details: for MIC: substance alone
[2] = system: S. aureus ATCC BAA-1556 USA300; assay: Broth microdilution MIC; assay type: cell-based, Staphylococcus aureus; details: Staphylococcus aureus, S. aureus ATCC BAA-1556 USA300; substance alone
E. coli ATCC 25922 = assay: Broth microdilution MIC; assay type: cell-based; details: Escherichia coli, ATCC25922, substance alone, read-out: MIC
S. enterica ATCC 14028 = assay: Broth microdilution MIC; assay type: cell-based; details: Salmonella enterica, ATCC14028, substance alone
P. aeruginosa ATCC 27853 = assay: Broth microdilution MIC; assay type: cell-based, Pseudomonas aeruginosa; details: substance alone
E. faecalis ATCC 29212 = assay: Broth microdilution MIC; assay type: cell-based, Enterococcus faecalis; details: for MIC: substance alone
S. aureus ATCC 29213 = assay: Broth microdilution MIC; assay type: cell-based; details: Staphylococcus aureus, ATCC29213, S. aureus ATCC 29213; substance alone; read-out: MIC
S. aureus ATCC 12598 = assay: Broth microdilution MIC; assay type: cell-based, Staphylococcus aureus; details: Staphylococcus aureus, ATCC12598, S. aureus ATCC 12598; substance alone; read-out: MIC
all tested strains = assay: Broth microdilution MIC, summary over all tested strains; assay type: cell-based; details: for MIC reduction in combination with PB4: all tested bacterial strains, antibiotic + PB4
A. baumannii ATCC 17978 = assay: Broth microdilution MIC; assay type: cell-based; details: Acinetobacter baumannii, ATCC17978, substance alone
[3] = system: CaCo2 colon-rectal cancer cell line; set-up: method as in in-house dataset; Log(IC50) 48h: unit not given here; details: in-house dataset previously tested by the authors' groups, ref in-house dataset, cited from earlier work
Gram-positive strains = assay: Broth microdilution MIC, summary over Gram-positive strains; assay type: cell-based
[4] = system: CaCo-2 (ATCC HTB-37) colon–rectal cancer cell line; assay: MTT cytotoxicity assay on CaCo-2 cells; assay type: cell-based, human; details: for pIC50: Homo sapiens, CaCo-2 cell line, MTT; for Percentage of cell growth, antibiotic / Percentage of cell growth, antibiotic + PB4 0.2 µM: CaCo-2
Procedure: To fully assess the biological activity of the new molecules, they were tested at different concentrations on the CaCo-2 (ATCC HTB-37) colon–rectal cancer cell line. These human cancer cells were exposed to compound solutions ranging in concentration from 100 µM to 0.01 µM. As a reference compound for these assays, we used 5-Fluorouracil (5-FU), a pyrimidine analog from the antimetabolite family.
The MTT assay was also performed for the selected antibiotics to evaluate the effect of their combined treatment with PB4.
To evaluate the effect of the heteroaryl ethylene compounds and the antibiotics, an MTT ([3-(4,5-dimethylthiazol-2-yl)-2,5-diphenyltetrazolium bromide]) assay was performed as previously described. […] Both concentrations were also tested in combination with PB4 0.2 µM. All antibiotics were provided by Thermo Scientific^TM Oxoid^TM, Basingstoke, UK. Twenty-four hours after plating, the cells were treated with 20 μL of each solution. Untreated cells were used as controls. […] The IC50 values were calculated by nonlinear regression analysis using GraphPad Prism 6.0 software.

[5] = Klebsiella pneumoniae, ATCC700603, K. pneumoniae ATCC 700603, read-out: MIC
[6] = Pseudomonas aeruginosa, ATCC27853, P. aeruginosa ATCC 27853, read-out: MIC
[7] = Enterococcus faecalis, ATCC29212, E. faecalis ATCC 29212, read-out: MIC
[8] = Caco-2, 24 h, 24 h of treatment, read-out: IC50 at 24 h
[9] = Caco-2, 48 h, 48 h of treatment, read-out: IC50 at 48 h

CC1(C)S[C@@H]2[C@H](NC(=O)[C@H](N)c3ccccc3)C(=O)N2[C@H]1C(=O)O [Ampicillin, ampicillin, reference compound]
MIC of antibiotic in combination with PB4 ([1]; K. pneumoniae ATCC 700603, sub-MIC PB4): 2 µg/mL | MIC ([1]; K. pneumoniae ATCC 700603): 8 mg/L (≈ 22.9 µM) | MIC ([1]; K. pneumoniae ATCC 700603, listed as AMP): >128 mg/L | MIC [2]: 8 µg/mL (≈ 22.9 µM) | MIC (E. coli ATCC 25922): 8 µg/mL (≈ 22.9 µM) | MIC (S. enterica ATCC 14028): 2 µg/mL (≈ 5.72 µM) | MIC (P. aeruginosa ATCC 27853; P. aeruginosa ATCC 27853): 2 mg/L (≈ 5.72 µM) | MIC (P. aeruginosa ATCC 27853; P. aeruginosa ATCC 27853, listed as AMP): >128 mg/L | MIC of antibiotic in combination with PB4 (E. faecalis ATCC 29212; E. faecalis ATCC 29212, PB4 at fixed 0.125 μg/mL (0.24 μM), a quarter of an MIC value): 1 µg/mL | MIC (E. faecalis ATCC 29212; E. faecalis ATCC 29212): 4 mg/L (≈ 11.4 µM) | MIC (E. faecalis ATCC 29212; E. faecalis ATCC 29212, listed as AMP): 0.25 mg/L (≈ 0.715 µM) | MIC (S. aureus ATCC 29213): 2 µg/mL (≈ 5.72 µM) | MIC (S. aureus ATCC 12598): 0.125 µg/mL (≈ 0.358 µM) | MIC reduction in combination with PB4 (all tested strains): no significant MIC reductions | MIC (A. baumannii ATCC 17978): 32 µg/mL (≈ 91.6 µM)

COc1ccc(/C=C/c2cccc(/C=C/c3ccc(OC)cc3)[n+]2C)cc1 [BCM6]
pIC50 ([3]; 48h): 4.91 | Log(IC50) 48h [3]: 1.09 | MIC (Gram-positive strains): 4 to 8 µg/mL | MIC [1, 5]: > 128 µg/mL and > 264 µM | MIC [2]: 8 µg/mL and 16.4 µM | MIC (E. coli ATCC 25922): 128 µg/mL and 264 µM | MIC (S. enterica ATCC 14028): > 128 µg/mL and > 264 µM | MIC (P. aeruginosa ATCC 27853; [6]): > 128 µg/mL and > 264 µM | MIC (E. faecalis ATCC 29212; [7]): 32 µg/mL and 65.9 µM | MIC (S. aureus ATCC 29213): 4 µg/mL and 8.2 µM | pIC50 [4, 8]: 6.80 | pIC50 [4, 9]: 6.74 | MIC (S. aureus ATCC 12598): 4 µg/mL and 8.23 µM | MIC (A. baumannii ATCC 17978): 64 µg/mL and 132 µM

CC[C@H]1OC(=O)[C@H](C)[C@@H](O[C@H]2C[C@@](C)(OC)[C@@H](O)[C@H](C)O2)[C@H](C)[C@@H](O[C@@H]2O[C@H](C)C[C@H](N(C)C)[C@H]2O)[C@](C)(O)C[C@@H](C)C(=O)[C@H](C)[C@@H](O)[C@]1(C)O [Erythromycin, erythromycin]
MIC [2]: 32 µg/mL (≈ 43.6 µM) | MIC (E. faecalis ATCC 29212; [7]): 2 mg/L (≈ 2.73 µM) | MIC (S. aureus ATCC 29213): 0.5 µg/mL (≈ 0.681 µM) | Percentage of cell growth, antibiotic ([4]; antibiotic alone at MIC for E. faecalis ATCC 29212, 24 h): 148.2% | Percentage of cell growth, antibiotic ([4]; antibiotic alone at MIC for E. faecalis ATCC 29212, 48 h): 269.0% | Percentage of cell growth, antibiotic ([4]; antibiotic alone at sub-MIC (half-MIC), 24 h): 159.5% | Percentage of cell growth, antibiotic ([4]; antibiotic alone at sub-MIC (half-MIC), 48 h): 280.6% | Percentage of cell growth, antibiotic + PB4 0.2 µM ([4]; antibiotic at MIC + PB4 0.2 µM, 24 h): 133.6% | Percentage of cell growth, antibiotic + PB4 0.2 µM ([4]; antibiotic at MIC + PB4 0.2 µM, 48 h): 117.5% | Percentage of cell growth, antibiotic + PB4 0.2 µM ([4]; antibiotic at sub-MIC + PB4 0.2 µM, 24 h): 124.9% | Percentage of cell growth, antibiotic + PB4 0.2 µM ([4]; antibiotic at sub-MIC + PB4 0.2 µM, 48 h): 155.8% | MIC (S. aureus ATCC 12598): 0.5 µg/mL (≈ 0.681 µM) | MIC reduction in combination with PB4 (all tested strains): no significant MIC reductions

C[n+]1c(/C=C/c2ccc(N(c3ccccc3)c3ccccc3)cc2)cccc1/C=C/c1ccc(N(c2ccccc2)c2ccccc2)cc1 [GC-VI-10]
MIC [1, 5]: > 128 µg/mL and > 169 µM | MIC [2]: 128 µg/mL and 169 µM | MIC (E. coli ATCC 25922): > 128 µg/mL and > 169 µM | MIC (S. enterica ATCC 14028): > 128 µg/mL and > 169 µM | MIC (P. aeruginosa ATCC 27853; [6]): > 128 µg/mL and > 169 µM | MIC (E. faecalis ATCC 29212; [7]): 4 µg/mL and 5.2 µM | MIC (S. aureus ATCC 29213): 128 µg/mL and 169 µM | pIC50 [4, 8]: 5.87 | pIC50 [4, 9]: 6.00 | MIC (S. aureus ATCC 12598): 64 µg/mL and 84.4 µM | MIC levels over all tested strains (all tested strains; summary in text over all tested strains): high MIC levels | MIC (A. baumannii ATCC 17978): > 128 µg/mL and > 169 µM

CN(C)c1ccc(/C=C/C=C/c2ccc3ccccc3[n+]2C)cc1 [GC-VII-50]
MIC (Gram-positive strains): 0.25 to 8 µg/mL | MIC [1, 5]: > 128 µg/mL and > 297 µM | MIC [2]: 2 µg/mL and 4.6 µM | MIC (E. coli ATCC 25922): 64 µg/mL and 149 µM | MIC (S. enterica ATCC 14028): > 128 µg/mL and > 297 µM | MIC (P. aeruginosa ATCC 27853; [6]): > 128 µg/mL and > 297 µM | MIC (E. faecalis ATCC 29212; [7]): 8 µg/mL and 18.5 µM | MIC (S. aureus ATCC 29213): 0.5 µg/mL and 1.1 µM | pIC50 [4, 8]: 6.77 | pIC50 [4, 9]: 7.15 | MIC (S. aureus ATCC 12598): 0.25 µg/mL and 0.5 µM | MIC (A. baumannii ATCC 17978): 16 µg/mL and 37.2 µM

C[C@@H](O)[C@H]1C(=O)N2C(C(=O)O)=C(SCCN=CN)C[C@H]12 [IMI, imipenem, reference compound]
MIC [1, 5]: 0.03 mg/L (≈ 0.1 µM) | MIC (E. coli ATCC 25922): 0.06 µg/mL (≈ 0.2 µM) | MIC (S. enterica ATCC 14028): 0.06 µg/mL (≈ 0.2 µM) | MIC (P. aeruginosa ATCC 27853; [6]): 0.25 mg/L (≈ 0.835 µM) | MIC reduction in combination with PB4 (all tested strains): no significant MIC reductions | MIC (A. baumannii ATCC 17978): 0.06 µg/mL (≈ 0.2 µM)
